Where two headings read alike, the source gives them in different places.
Target: Mcl-1 protein (UniProtKB primary accession number: Q07820) (Homo sapiens, UniProt Q07820)
Assay: Inhibition of Mcl-1 by fluorescence polarisation, Method 1
Assay type: binding
Details: for IC50: read-out: IC50 (M) Mcl-1 FP; for percentage fluorescence polarisation inhibition, Mcl-1 FP: partial inhibitors
Summary of the method: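 Buffer of 10 mM HEPES pH 7.4 with 150 mM NaCl and 0.05% Tween 20 held 5 nM Mcl-1 and 1 nM fluorescein-tagged ligand (final). Compounds were tested as 11-point serial dilutions at 5% final DMSO, and binding was read by FP.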

[1] = fluorescence polarisation test, Method 2 values are underlined in the patent (underlining not visible here)
[2] = fluorescence polarisation, Method 1, or Method 2
[3] = fluorescence polarisation test, Method 1, or Method 2 where the value is underlined (underlining not visible)

Chain of Mcl-1 protein (Q07820 whole entry): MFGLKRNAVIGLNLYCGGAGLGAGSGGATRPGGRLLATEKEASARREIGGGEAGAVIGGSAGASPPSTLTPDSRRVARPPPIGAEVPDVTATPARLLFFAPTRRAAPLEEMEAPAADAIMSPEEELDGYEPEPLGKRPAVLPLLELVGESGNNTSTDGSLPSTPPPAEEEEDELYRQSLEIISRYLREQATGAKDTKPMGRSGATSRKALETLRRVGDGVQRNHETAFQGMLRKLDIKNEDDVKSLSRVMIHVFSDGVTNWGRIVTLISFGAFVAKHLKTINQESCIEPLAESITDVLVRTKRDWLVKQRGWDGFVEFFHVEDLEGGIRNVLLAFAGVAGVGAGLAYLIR

Row | SMILES | IC50 [2] | also measured
1 | COc1ccccc1CC(Oc1ncnc2sc(-c3ccc(Cl)o3)c(-c3ccc(OCCN4CCN(C)CC4)c(Cl)c3C)c12)C(=O)O [Example 363, (2R)-2-{[6-(5-chlorofuran-2-yl)-(5Sa)-5-{3-chloro-2-methyl-4-[2-(4-methylpiperazin-1-yl)ethoxy]phenyl}thieno[2,3-d]pyrimidin-4-yl]oxy}-3-(2-methoxyphenyl)propanoic acid] | – | IC50 [1]: 7.7e-09 M
2 | CCOC(=O)[C@@H](Cc1ccccc1OC)Oc1ncnc2sc(-c3ccsc3)c(-c3ccc(O)c(Cl)c3C)c12 [Example 636, ethyl (2R)-2-{[(5Sa)-5-(3-chloro-4-hydroxy-2-methylphenyl)-6-(thiophen-3-yl)thieno[2,3-d]pyrimidin-4-yl]oxy}-3-(2-methoxyphenyl)propanoate] | – | percentage fluorescence polarisation inhibition, Mcl-1 FP (@ 1000 uM test compound): 71.7 % @ 1000 uM
3 | COc1ccccc1CC(Oc1ncnc2sc(-c3ccco3)c(-c3ccc(OCCN4CCN(C(C)=O)CC4)c(Cl)c3C)c12)C(=O)O [Example 323, (2R)-2-{[(5Sa)-5-{4-[2-(4-acetylpiperazin-1-yl)ethoxy]-3-chloro-2-methylphenyl}-6-(furan-2-yl)thieno[2,3-d]pyrimidin-4-yl]oxy}-3-(2-methoxyphenyl)propanoic acid] | – | IC50 [1]: 8.8e-09 M
4 | COc1ccccc1CC(Oc1ncnc2sc(-c3cccc(Cl)c3)c(-c3ccc(OCCN4CCN(C)CC4)c(Cl)c3C)c12)C(=O)O [Example 550, (2R)-2-{[(5Sa)-5-{3-chloro-2-methyl-4-[2-(4-methylpiperazin-1-yl)ethoxy]phenyl}-6-(3-chlorophenyl)thieno[2,3-d]pyrimidin-4-yl]oxy}-3-(2-methoxyphenyl)propanoic acid] | 4.8e-08 M | –
5 | CCc1sc2ncnc(OC(Cc3ccccc3)C(=O)O)c2c1-c1ccc(OCc2ccncc2)c(Cl)c1C [Example 395, (2R)-2-({(5Sa)-5-[3-chloro-2-methyl-4-(pyridin-4-ylmethoxy)phenyl]-6-ethylthieno[2,3-d]pyrimidin-4-yl}oxy)-3-phenylpropanoic acid] | 1.6e-08 M | –
6 | COc1ccccc1-c1nccc(COc2ccccc2CC(Oc2ncnc3sc(-c4ccc(OCCN5CCOCC5)cc4)c(-c4ccc(OCCN5CCN(C)CC5)c(Cl)c4C)c23)C(=O)O)n1 (single isomer, unassigned) [Example 763] | 9.05e-08 M | –
7 | Cc1c(-c2c(-c3ccc(F)cc3)sc3ncnc(OC(Cc4ccccc4OCc4ccnc(-c5ccccn5)n4)C(=O)O)c23)ccc(OCCN2CCN(C)CC2)c1Cl [Example 31, (2R)-2-{[(5Sa)-5-{3-chloro-2-methyl-4-[2-(4-methylpiperazin-1-yl)ethoxy]phenyl}-6-(4-fluorophenyl)thieno[2,3-d]pyrimidin-4-yl]oxy}-3-(2-{[2-(pyridin-2-yl)pyrimidin-4-yl]methoxy}phenyl)propanoic acid] | – | IC50 [1]: 5.6e-09 M
8 | CCN(C)CCOc1ccc(-c2c(-c3ccc(F)cc3)sc3ncnc(OC(Cc4ccccc4OCc4ccnc(-c5ccccc5F)n4)C(=O)OCc4oc(=O)oc4C)c23)c(C)c1Cl [Example 823, (5-methyl-2-oxo-1,3-dioxol-4-yl)methyl (2R)-2-{[(5Sa)-5-(3-chloro-4-{2-[ethyl(methyl)amino]ethoxy}-2-methylphenyl)-6-(4-fluorophenyl)thieno[2,3-d]pyrimidin-4-yl]oxy}-3-(2-{[2-(2-fluorophenyl)pyrimidin-4-yl]methoxy}phenyl)propanoate] | – | IC50 [3]: 1.98e-08 M
9 | CC#Cc1sc2ncnc(OC(Cc3ccccc3OC)C(=O)O)c2c1-c1cc(C)c(OCCN2CCN(C)CC2)c(Cl)c1C [Example 474, (2R)-2-{[(5Ra)-5-{3-chloro-2,5-dimethyl-4-[2-(4-methylpiperazin-1-yl)ethoxy]phenyl}-6-(prop-1-yn-1-yl)thieno[2,3-d]pyrimidin-4-yl]oxy}-3-(2-methoxyphenyl)propanoic acid] | 5.5e-07 M | –
10 | Cc1c(-c2c(-c3cnn(C)c3)sc3ncnc(OC(Cc4ccccc4)C(=O)O)c23)ccc(OCCN2CCOCC2)c1Cl [Example 712, (2R)-2-{[(5Sa)-5-{3-chloro-2-methyl-4-[2-(morpholin-4-yl)ethoxy]phenyl}-6-(1-methyl-1H-pyrazol-4-yl)thieno[2,3-d]pyrimidin-4-yl]oxy}-3-phenylpropanoic acid] | 4.1e-07 M | –
11 | COc1ccccc1CC(Oc1ncnc2sc(-c3ccc(Br)o3)c(-c3ccc(OCCN4CCN(C)CC4)c(Cl)c3C)c12)C(=O)O [Example 577, (2R)-2-{[6-(5-bromofuran-2-yl)-(5Sa)-5-{3-chloro-2-methyl-4-[2-(4-methylpiperazin-1-yl)ethoxy]phenyl}thieno[2,3-d]pyrimidin-4-yl]oxy}-3-(2-methoxyphenyl)propanoic acid] | 7.6e-09 M | –
12 | Cc1c(-c2c(-c3ccc(F)cc3)sc3ncnc(OC(Cc4ccccc4OCC(F)(F)F)C(=O)O)c23)ccc(OCCN2CCOCC2)c1Cl [Example 657, (2R)-2-{[(5Sa)-5-{3-chloro-2-methyl-4-[2-(morpholin-4-yl)ethoxy]phenyl}-6-(4-fluorophenyl)thieno[2,3-d]pyrimidin-4-yl]oxy}-3-[2-(2,2,2-trifluoroethoxy)phenyl]propanoic acid] | 2.1e-08 M | –
13 | CCCCn1nccc1COc1ccccc1CC(Oc1ncnc2sc(-c3ccc(N)nc3)c(-c3ccc(OCCN4CCN(C)CC4)c(Cl)c3C)c12)C(=O)O [Example 618, (2R)-2-{[6-(6-aminopyridin-3-yl)-(5Sa)-5-{3-chloro-2-methyl-4-[2-(4-methylpiperazin-1-yl)ethoxy]phenyl}thieno[2,3-d]pyrimidin-4-yl]oxy}-3-{2-[(1-butyl-1H-pyrazol-5-yl)methoxy]phenyl}propanoic acid] | 5.6e-09 M | –
14 | CCc1sc2ncnc(OC(Cc3ccccc3)C(=O)O)c2c1-c1cccc(Cl)c1C [Example 451, (2R)-2-{[(5Ra)-5-(3-chloro-2-methylphenyl)-6-ethylthieno[2,3-d]pyrimidin-4-yl]oxy}-3-phenylpropanoic acid] | 5.8e-07 M | –
15 | COc1ccccc1CC(Oc1ncnc2sc(-c3ccc(C(OC)OC)o3)c(-c3ccc(OCCN4CCN(C)CC4)c(Cl)c3C)c12)C(=O)O [Example 542, (2R)-2-[((5Sa)-5-{3-chloro-2-methyl-4-[2-(4-methylpiperazin-1-yl)ethoxy]phenyl}-6-[5-(dimethoxymethyl)furan-2-yl]thieno[2,3-d]pyrimidin-4-yl)oxy]-3-(2-methoxyphenyl)propanoic acid] | 4.3e-07 M | –
16 | COc1nccc(COc2ccccc2C[C@@H](Oc2ncnc3sc(-c4ccc(F)c(OCCN5CCN(C)CC5)c4)c(-c4ccc(OC)c(Cl)c4C)c23)C(=O)O)n1 [Example 697, (2R)-2-{[(5Ra)-5-(3-chloro-4-methoxy-2-methylphenyl)-6-{4-fluoro-3-[2-(4-methylpiperazin-1-yl)ethoxy]phenyl}thieno[2,3-d]pyrimidin-4-yl]oxy}-3-{2-[(2-methoxypyrimidin-4-yl)methoxy]phenyl}propanoic acid] | – | percentage fluorescence polarisation inhibition, Mcl-1 FP (@ 1 uM test compound): 45.55% @ 1 uM
17 | CC#Cc1sc2ncnc(O[C@H](Cc3ccccc3OC)C(=O)O)c2c1-c1ccc(CCCN(C)C)c(Cl)c1C (single isomer, unassigned) [Example 478] | 5.3e-07 M | –
18 | CCOC(=O)C(Cc1ccccc1OCc1ccnc(-c2ccccc2F)n1)Oc1ncnc2sc(-c3ccc(F)cc3)c(-c3ccc(OCCN4CCN(C)CC4)c(Cl)c3C)c12 [Example 797, ethyl (2R)-2-{[(5Sa)-5-{3-chloro-2-methyl-4-[2-(4-methylpiperazin-1-yl)ethoxy]phenyl}-6-(4-fluorophenyl)thieno[2,3-d]pyrimidin-4-yl]oxy}-3-(2-{[2-(2-fluorophenyl)pyrimidin-4-yl]methoxy}phenyl)propanoate] | – | IC50 [3]: 2.75e-06 M

Source: patent publication US9670227B2, “Thienopyrimidine derivatives, a process for their preparation and pharmaceutical compositions containing them” (LES LABORATOIRES SERVIER, priority 2013, dated 2017)
